Test: xn = mol fraction of the nth substance listed

CC[n+]1ccn(C)c1.O=S(=O)([O-])O + Cc1ncc(CO)c(CO)c1O.Cl + O
viscosity [mPa·s], 100 kPa
Conditions	293.15 K	298.15 K	303.15 K	308.15 K	313.15 K
x2 = 0, x1 = 0.0009002	1.048	0.945	0.835	0.758	0.693
x2 = 0, x1 = 0.001799	1.067	0.948	0.855	0.772	0.702
x2 = 0, x1 = 0.002696	1.083	0.963	0.862	0.776	0.707
x2 = 0.000265, x1 = 0.002695	1.088	0.968	0.867	0.781	0.712
x2 = 0.0002728, x1 = 0.0008999	1.052	0.949	0.839	0.762	0.697
x2 = 0.0002827, x1 = 0.001798	1.072	0.953	0.86	0.777	0.707
x2 = 0.0004855, x1 = 0.0008998	1.056	0.953	0.843	0.766	0.701
x2 = 0.0005353, x1 = 0.002694	1.093	0.973	0.872	0.786	0.717
x2 = 0.0005469, x1 = 0.001798	1.077	0.958	0.865	0.782	0.712
x2 = 0.0008161, x1 = 0.0008994	1.062	0.959	0.849	0.772	0.707
x2 = 0.0008296, x1 = 0.002693	1.099	0.979	0.878	0.792	0.723
x2 = 0.0008311, x1 = 0.001797	1.082	0.963	0.87	0.787	0.717
x2 = 0.001096, x1 = 0.0008992	1.067	0.964	0.854	0.777	0.712
x2 = 0.001123, x1 = 0.001797	1.088	0.969	0.877	0.793	0.723
x2 = 0.001138, x1 = 0.002693	1.106	0.986	0.884	0.797	0.729
x2 = 0.001364, x1 = 0.000899	1.073	0.97	0.86	0.784	0.718
x2 = 0.001383, x1 = 0.001796	1.094	0.976	0.882	0.798	0.728
x2 = 0.001395, x1 = 0.002692	1.111	0.992	0.889	0.803	0.734
x2 = 0.001638, x1 = 0.0008987	1.078	0.976	0.866	0.79	0.724
x2 = 0.001641, x1 = 0.001796	1.099	0.981	0.888	0.805	0.734
x2 = 0.001656, x1 = 0.002691	1.117	0.998	0.896	0.808	0.739

CCCC[n+]1ccn(C)c1.F[P-](F)(F)(F)(F)F + CCCC[n+]1ccn(C)c1.O=S(=O)([N-]S(=O)(=O)C(F)(F)F)C(F)(F)F
Conditions	viscosity [mPa·s]
313.15 K, 100 kPa, x1 = 0.5	49.8

CC(CC(C)(C)C)CP(=O)([O-])CC(C)CC(C)(C)C.CCCCCCCCCCCCCC[P+](CCCCCC)(CCCCCC)CCCCCC + CCCCCCCCCCCC + O
Conditions	viscosity [mPa·s]
303.15 K, 100 kPa, x2 = 0, x3 = 0.8861	119.5

CCCC[n+]1ccn(C)c1.O=S(=O)([N-]S(=O)(=O)C(F)(F)F)C(F)(F)F + CC1CC(=O)O1
100 kPa, frequency 0.01 MHz, x1 = 1
Conditions	electrical conductivity [S/m]
293.15 K	0.337
298.15 K	0.4
303.15 K	0.472
308.15 K	0.552
313.15 K	0.64
318.15 K	0.733
323.15 K	0.835

CCCC[n+]1ccn(C)c1.O=S(=O)([N-]S(=O)(=O)C(F)(F)F)C(F)(F)F + CC#N
Conditions	electrical conductivity, x1 = 0.0063 [S/m]	electrical conductivity, x1 = 0.01076 [S/m]	electrical conductivity, x2 = 0.661 [S/m]	electrical conductivity, x2 = 0.905 [S/m]	viscosity, x2 = 0 [mPa·s]	viscosity, x2 = 0.1534 [mPa·s]	viscosity, x2 = 0.2508 [mPa·s]	viscosity, x2 = 0.602 [mPa·s]	viscosity, x2 = 0.7518 [mPa·s]
294.5 K, 100 kPa	–	1.58	–	–	–	–	–	–	–
298 K, 101 kPa	1.14	–	2.25	4.42	50.4	34.4	25.4	6.4	2.73

CCCCCC(=O)O + CCCC[P+](CCCC)(CCCC)CCCC.[Br-]
Conditions	viscosity [mPa·s]
298 K, 100 kPa, x2 = 0.5	290

CCCCCC[N+](CC)(CC)CC.O=S(=O)([N-]S(=O)(=O)C(F)(F)F)C(F)(F)F + CC(C)O
100 kPa
Conditions	viscosity [mPa·s]
293.15 K, x2 = 0.096	160
298.15 K, x2 = 0.2045	95.8
298.15 K, x2 = 0.3101	68.4
298.15 K, x2 = 0.4987	35.9
303.15 K, x2 = 0.3101	61.4
308.15 K, x2 = 0.4056	35.1
308.15 K, x2 = 0.4987	25.5
308.15 K, x2 = 0.5916	18
308.15 K, x2 = 0.8015	5.65
308.15 K, x2 = 0.9193	2.98
313.15 K, x2 = 0.096	69.9
313.15 K, x2 = 0.5916	16

COCCCn1cc[n+](C)c1.O=S(=O)([N-]S(=O)(=O)C(F)(F)F)C(F)(F)F + O
Conditions	viscosity [mPa·s]
283 K, 101 kPa, x1 = 0.8316	82.6

— the CheMixHub ionic liquid set
